Laboratory results: patent publication US11413278B2, “Compounds and methods for promoting stress resistance” (priority 2015, dated 2022)
Like-named read-outs stand apart in the source and are kept apart here.

Columns and labels:
[1] = test system: PC12 cells expressing poly(Q)103-Htt-EGFP; assay: Poly(Q) toxicity & viability analysis (cellular model of Huntington's disease); type: cell-based, rat; settings: for M = Huntington's poly-Q toxicity attenuation: score; for K = Huntington's poly-Q toxicity attenuation: summary score
Outline: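 PC12 cells stably carrying inducible poly(Q)103-Htt-EGFP, whose induced expression causes aggregation and toxicity. Viability read 48 hrs later as ATP content by CellTiter-Glo.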

[2] = Summary score for characterization of 38 core set hits; settings: for D = Triple resistant: 2-point score, multiplex resistance (cadmium, MMS, H2O2); for C = H2O2- & Cd-resistant: score, resistance to both H2O2 and cadmium
Outline: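 Composite score across characterizations of hits from an H2O2-resistance screen. Multiplex resistance, FOXO3/NRF2 activation and mTOR down-regulation each earn 2 points. C. elegans lifespan extension over 4–6 trials scores 0–2, and DNA damage or toxicity in human cells subtracts a point.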

[3] = test system: LC3A/B puncta; assay: Autophagy induction analysis (LC3A/B puncta immuno-staining); type: cell-based, human
Outline: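 WI-38 cells were treated with compounds for 24 hrs, then immunostained for LC3A/B (overnight, 4° C) with DAPI counterstain and imaged by high-content microscopy. Experiment 1 used total puncta intensity. Experiment 2 used LAMP2-colocalized (lysosomal) puncta. Intensity was normalized to nuclei count.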

[4] = test system: C. elegans; assay: C. elegans lifespan assays (liquid and plate); type: in vivo, Caenorhabditis elegans; settings: for ILS at 60 µM / ILS at 66 µM: Caenorhabditis elegans; for O = Life span- extending scores in worms: score scale 0 to 2, 4 to 6 independent trials; for M = Lifespan-extending scores in worms: summary score; for Extension of C. elegans' lifespan (qualitative): in at least 3 to 4 trials, group range ~10% to ~50%
[5] = 60 μM, in liquid, wild type, with FuDR, 1.0 × 10^9 bacteria/ml, read-out: relative change of mean lifespan vs control, Trial 1
[6] = 60 μM, in liquid, wild type, with FuDR, 2.5 × 10^9 bacteria/ml, read-out: relative change of mean lifespan vs control, Trial 2
[7] = 60 μM, on plate, CF512 temperature-sensitive sterile animals, without FuDR, 2.0 × 10^10 bacteria/ml, read-out: relative change of mean lifespan vs control, Trial 3
[8] = Assay 2(z), 1.0 × 10^9 bacteria/ml, wild type + FuDR (2012 July), read-out: Lifespan assay in liquid
[9] = Assay 3(aa), 2.5 × 10^9 bacteria/ml, wild type + FuDR, read-out: Lifespan assay in liquid
[10] = Assay 4(ab), 2.0 × 10^10 bacteria/ml, CF512 worms, no FuDR, read-out: Lifespan assay on plates
[11] = 60 μM, on plate, CF512 temperature-sensitive sterile animals, without FuDR, 1.0 × 10^11 bacteria/ml, read-out: relative change of mean lifespan vs control, Trial 4
[12] = Assay 5(ac), 1.0 × 10^11 bacteria/ml, CF512 worms, no FuDR, read-out: Lifespan assay on plates

SMILES	M = Huntington's poly-Q toxicity attenuation [1]	K = Huntington's poly-Q toxicity attenuation [1]	D = Triple resistant [2]	S = Sum of Negative scores ([2]; human)	C = H2O2- & Cd-resistant [2]	H = Potential Autophagy Induction ([3]; score)	H = Potential Autophagy Induction ([3]; summary score)	ILS at 60 µM [4, 5]	ILS at 60 µM [4, 6]	ILS at 60 µM [4, 7]	ILS at 66 µM [4, 8]	ILS at 66 µM [4, 9]	ILS at 66 µM [4, 10]	O = Life span- extending scores in worms [4]	M = Lifespan-extending scores in worms [4]	Extension of C. elegans' lifespan (qualitative) [4]	other results
CC(C)(C)c1ccc(OCC(=O)Nc2ccc3c4c(cccc24)C(=O)NC3=O)cc1 [O22]	0	0	2	0	1	0	0	-24.5%	-2.3%	-52.8%	-24.5%	-2.3%	-52.8%	0	0		
CC1C(=O)C(C)C(c2cc(Cl)ccc2O)NC1c1cc(Cl)ccc1O (centres unmarked) [O6]	0	0	0	0	1	0	0	28.3%	10.3%	3.9%	28.3%	10.3%	3.9%	1 (1 for lifespan extension observed in 2 trials)	1 (1 for lifespan extension observed in 2 trials)		
Nc1ccccc1S(=O)(=O)Nc1cccc2cccnc12 [Gr-3C]	0	0	0	2	0	0	0				18.9%	11.9%	8%	2 (2 for observed in more than 2 trials)	2 (2 for observed in more than 2 trials)	could extend animal's lifespan	ILS at 60 µM ([4]; read-out: relative change of mean lifespan vs control, Trial 1): 18.9%; ILS at 60 µM ([4]; read-out: relative change of mean lifespan vs control, Trial 2): 11.9%; ILS at 60 µM ([4]; read-out: relative change of mean lifespan vs control, Trial 3): 8%
O=C(NCc1cccnc1)/C(=C\c1cccc(Oc2ccccc2)c1)S(=O)(=O)c1ccccc1 [Gr-7A]	0	0	0	1	0	0	0	40.6%	16.2%	13.9%	40.6%	16.2%	13.9%	2 (2 for observed in more than 2 trials)	2 (2 for observed in more than 2 trials)	could extend animal's lifespan	ILS at 60 µM [4, 11]: 2.7%; ILS at 66 µM [4, 12]: 2.7%
N=C1S/C(=C\c2cn(-c3ccccc3)nc2-c2cccs2)C(=O)N1c1nccs1 [Gr-6C]	0	0	0	2	0	0	0	20.5%	12.4%	9.4%	20.5%	12.4%	9.4%	2 (2 for observed in more than 2 trials)	2 (2 for observed in more than 2 trials)	could extend animal's lifespan	Trials with lifespan extension ([4]; positive of total trials): 3 of 3
O=C(c1ccc([N+](=O)[O-])o1)N1CCc2ccccc21 [O13]	0	0	0	0	0	0	0	32.7%	10.3%	27.3%	32.7%	10.3%	27.3%	2 (2 for observed in more than 2 trials)	2 (2 for observed in more than 2 trials)	could extend animal's lifespan	relative change of mean lifespan vs control, Trial 6 (confirmative) ([4]; 60 μM, on plate, temperature-sensitive sterile animals, without FuDR, 1.0 × 10^11 bacteria/ml): +15.3%; relative change of mean lifespan vs control, Trial 5 (confirmative) ([4]; 60 μM, on plate, temperature-sensitive sterile animals, without FuDR, 2.0 × 10^10 bacteria/ml): +8.4%; Lifespan, average increase ([4]; 4 or more trials): 18.2%; ILS at 60 µM [4, 11]: 15%; ILS at 66 µM [4, 12]: 15%; ILS at 66 µM ([4]; Assay 6(ad), 2.0 × 10^10 bacteria/ml, CF512 worms, no FuDR, read-out: Lifespan assay on plates): 8.4%; ILS at 66 µM ([4]; Assay 7(ae), 1.0 × 10^11 bacteria/ml, CF512 worms, no FuDR, read-out: Lifespan assay on plates): 15.3%; Lifespan, mean (FIG. 6B) ([4]; temperature-sensitive sterile rollers, on plate, without FuDR, 25° C. then ~22° C., control 18.4±0.4): 23.4±0.4; Lifespan increase (FIG. 6A) ([4]; wild-type, in liquid, with FuDR, 20° C., ~60 μM): ~33.2%; Lifespan, mean±SD (FIG. 6A) ([4]; wild-type, in liquid, with FuDR, 20° C., ~60 μM, control 21.1±0.5): 28.1±1.1
COc1ccc(C(=O)/C=C/c2ccccc2Br)c(OC)c1 [Gr-4B]	0	0	0		1	0	0	8.1%	14.5%	10.7%	8.1%	14.5%	10.7%	1 (1 for lifespan extension observed in 2 trials)	1 (1 for lifespan extension observed in 2 trials)		S = Sum of Negative scores ([2]; sum of columns Q and R): 0
